This passage reports IC50 results from BindingDB's records for patent US20250145589 (Sichuan Huiyu Pharmaceutical, 2025).

Broadly, the pIC50 is the IC50 on a negative log10 scale, so that one unit is a factor of ten. Read a low pIC50 as a large IC50.

pIC50: −log10 of the molar value.

Experiment [1] addresses T1, Phosphatidylinositol 4,5-bisphosphate 3-kinase catalytic subunit delta isoform (Homo sapiens, UniProt O00329).
T1 sequence (O00329 whole entry): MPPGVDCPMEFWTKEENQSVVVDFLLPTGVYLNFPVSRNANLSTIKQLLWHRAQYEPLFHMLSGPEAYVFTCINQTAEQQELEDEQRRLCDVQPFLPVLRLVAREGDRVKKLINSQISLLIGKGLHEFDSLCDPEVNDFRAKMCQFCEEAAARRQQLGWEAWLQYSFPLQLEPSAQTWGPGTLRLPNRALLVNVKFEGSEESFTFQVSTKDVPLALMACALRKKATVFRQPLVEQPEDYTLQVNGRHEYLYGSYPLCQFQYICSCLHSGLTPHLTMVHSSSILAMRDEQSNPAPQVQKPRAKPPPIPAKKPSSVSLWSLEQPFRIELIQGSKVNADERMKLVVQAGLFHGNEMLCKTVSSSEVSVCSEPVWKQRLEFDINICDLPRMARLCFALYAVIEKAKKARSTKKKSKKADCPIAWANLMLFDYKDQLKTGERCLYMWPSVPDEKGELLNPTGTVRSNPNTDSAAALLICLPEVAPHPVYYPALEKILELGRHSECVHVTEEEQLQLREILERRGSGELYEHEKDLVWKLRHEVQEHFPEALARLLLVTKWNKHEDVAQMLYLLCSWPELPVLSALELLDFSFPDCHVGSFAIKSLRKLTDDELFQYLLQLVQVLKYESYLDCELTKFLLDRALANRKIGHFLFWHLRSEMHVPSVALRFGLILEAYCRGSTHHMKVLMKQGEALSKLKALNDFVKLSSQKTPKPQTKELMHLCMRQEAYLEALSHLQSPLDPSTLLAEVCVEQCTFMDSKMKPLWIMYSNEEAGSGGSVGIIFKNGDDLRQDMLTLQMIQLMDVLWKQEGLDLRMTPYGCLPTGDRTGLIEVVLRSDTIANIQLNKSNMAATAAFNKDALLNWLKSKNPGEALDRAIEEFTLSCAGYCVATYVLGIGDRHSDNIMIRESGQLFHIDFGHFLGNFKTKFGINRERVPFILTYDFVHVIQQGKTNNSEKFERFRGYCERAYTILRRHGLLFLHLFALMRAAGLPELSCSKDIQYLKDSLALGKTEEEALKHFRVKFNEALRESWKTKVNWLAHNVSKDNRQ
As to the kind of experiment: Inhibition of PI3Kdelta Efficacy Assay. Here is the method:
(§1) The ADP-Glo™ kinase assay was used to assess the inhibition of PI3Kδ with our compounds. The utilized proteins and assay reagents were obtained from the ADP-Glo™ Kinase Assay Kit (Promega). Initially, a 2 mM stock solution of the test compound (dissolved in DMSO) was serially diluted in five-fold concentrations using DMSO to obtain eight working solutions 1 (200×) Subsequently, each of the eight working solutions 1 was further diluted in a 20-fold gradient by adding 5 μL into 95 μL of ddH2O, resulting in eight working solutions 2 (10×). In a 384-well white flat-bottom plate, 2 μL of 2.5×PI3Kδ kinase solution and 1 μL of working solution 2 (10×) were added to each well and mixed, followed by a 15-minute incubation at room temperature (RT). Subsequently, 2 μL of 2.5×PI and ATP solution mixture were added to each well, mixed, and incubated at RT for 60 minutes. Then, 5 μL of ADP-Glo (containing 10 mM MgCl2) reagent was added to each well, mixed, and incubated at RT for 40 minutes. Finally, 10 μL of the Kinase Detection Reagent was added to each well, mixed, and incubated at RT for 40 minutes. Luminescence values were recorded using a multi-mode microplate reader with luminescence channel settings, and the inhibitory rate was calculated using the following formula:%Inhibitionrate=[(Negative-testcompound)/(Negative-Blank)]*100Data were analyzed using GraphPad Prism with log(inhibitor) vs. response—Variable Slope(four parameters) fitting calculations for IC50 values.

The target in experiment [2] is Phosphatidylinositol 4,5-bisphosphate 3-kinase catalytic subunit alpha isoform (Homo sapiens, UniProt P42336). The experiment is described as follows: Inhibition of PI3Kalpha Efficacy assay. Here is the method: as §1, with “PI3Kα” for “PI3Kδ”, “(200′).” for “(200×)”, “2.5×PI3Kα” for “2.5×PI3Kδ”, “minutes.Finally,” for “minutes. Finally,”, “[…]” for “IC50”
For experiment [3], the target named is Son of sevenless homolog 1/GTPase KRas [G12C] (Homo sapiens, UniProt P01116, G12C). As to the kind of experiment: HTRF KRASG12C/SOS1 Binding Assay. The protocol: The HTRF KRASG12C/SOS1 Binding Assay was used to measure the interaction between KRASG12C and SOS1 proteins, and evaluate the enzymatic activity of compounds against KRASG12C. The utilized proteins and assay reagents were obtained from the KRASG12C-SOS1 binding assay kits (Cisbio). Initially, a 2 mM stock solution of the test compound (dissolved in DMSO) was serially diluted in five-fold concentrations using DMSO to obtain eight working solutions 1 (200×). Subsequently, each of the eight working solutions 1 was further diluted in a 20-fold gradient by adding 5 μL into 95 μL of Diluent buffer, mixed completely with vortex mixer, resulting in eight working solutions 2 (10×). In a 384-well white flat-bottom plate, 4 μL of Tag2-KRASG12C solution, 2 μL of working solution 2 (10×) and 4 μL of Tag1-SOS1 solution were sequentially added to each well and mixed, followed by a 15-minute incubation at room temperature (RT). Subsequently, 5 μL of Anti-tag 1-Tb3+ stock solution and 5 μL of Anti-tag2-XL665 were added to each well, mixed, and incubated at 4° C. for 3 hours. […] The inhibition rate was calculated using the following formula:%Inhibitionrate= [(Rationegative-Ratiocompound)/(Rationegative-RatioBlank)]×100Data were analyzed using GraphPad Prism with log (inhibitor) vs. response-Variable Slope (four parameters) fitting calculations for IC50 values.
A general note: TR-FRET usually uses a lanthanide donor and a delayed reading to cut background.

Chain of Phosphatidylinositol 4,5-bisphosphate 3-kinase catalytic subunit alpha isoform (P42336 whole entry, canonical isoform): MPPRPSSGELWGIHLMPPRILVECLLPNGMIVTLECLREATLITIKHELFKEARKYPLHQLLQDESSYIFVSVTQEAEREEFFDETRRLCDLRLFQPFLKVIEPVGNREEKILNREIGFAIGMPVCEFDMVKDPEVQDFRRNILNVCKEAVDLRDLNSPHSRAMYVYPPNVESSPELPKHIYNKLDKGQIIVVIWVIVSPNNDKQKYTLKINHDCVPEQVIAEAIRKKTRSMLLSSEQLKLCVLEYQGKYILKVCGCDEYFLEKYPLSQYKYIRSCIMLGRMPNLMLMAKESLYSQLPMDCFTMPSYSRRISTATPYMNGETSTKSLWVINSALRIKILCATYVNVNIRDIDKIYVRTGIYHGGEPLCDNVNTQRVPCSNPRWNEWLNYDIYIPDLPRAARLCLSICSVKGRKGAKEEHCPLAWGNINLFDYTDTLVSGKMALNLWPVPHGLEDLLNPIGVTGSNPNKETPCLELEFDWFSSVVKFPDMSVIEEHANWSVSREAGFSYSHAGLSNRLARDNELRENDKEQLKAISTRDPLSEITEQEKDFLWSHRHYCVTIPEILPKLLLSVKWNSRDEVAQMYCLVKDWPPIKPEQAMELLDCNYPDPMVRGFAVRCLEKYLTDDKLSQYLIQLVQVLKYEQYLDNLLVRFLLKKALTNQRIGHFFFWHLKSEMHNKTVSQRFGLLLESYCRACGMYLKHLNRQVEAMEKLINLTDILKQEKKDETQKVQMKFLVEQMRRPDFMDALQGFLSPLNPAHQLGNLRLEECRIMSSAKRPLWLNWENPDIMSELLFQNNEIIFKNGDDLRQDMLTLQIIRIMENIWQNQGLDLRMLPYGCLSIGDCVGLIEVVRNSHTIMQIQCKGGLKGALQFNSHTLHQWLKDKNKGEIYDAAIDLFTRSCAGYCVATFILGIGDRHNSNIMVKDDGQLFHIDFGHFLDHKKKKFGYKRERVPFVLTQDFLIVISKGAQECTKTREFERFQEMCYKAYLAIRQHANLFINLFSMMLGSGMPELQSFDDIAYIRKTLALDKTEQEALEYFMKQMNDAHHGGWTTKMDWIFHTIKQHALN
Chain of Son of sevenless homolog 1/GTPase KRas [G12C] (P01116 whole entry G12C): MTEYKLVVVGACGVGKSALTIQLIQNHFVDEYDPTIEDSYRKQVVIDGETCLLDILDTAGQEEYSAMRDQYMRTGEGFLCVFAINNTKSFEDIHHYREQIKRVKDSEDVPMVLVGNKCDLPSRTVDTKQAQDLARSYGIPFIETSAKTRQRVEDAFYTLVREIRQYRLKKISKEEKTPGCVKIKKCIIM
Chain of Son of sevenless homolog 1/GTPase KRas [G12C] (Q07889 whole entry, further chain): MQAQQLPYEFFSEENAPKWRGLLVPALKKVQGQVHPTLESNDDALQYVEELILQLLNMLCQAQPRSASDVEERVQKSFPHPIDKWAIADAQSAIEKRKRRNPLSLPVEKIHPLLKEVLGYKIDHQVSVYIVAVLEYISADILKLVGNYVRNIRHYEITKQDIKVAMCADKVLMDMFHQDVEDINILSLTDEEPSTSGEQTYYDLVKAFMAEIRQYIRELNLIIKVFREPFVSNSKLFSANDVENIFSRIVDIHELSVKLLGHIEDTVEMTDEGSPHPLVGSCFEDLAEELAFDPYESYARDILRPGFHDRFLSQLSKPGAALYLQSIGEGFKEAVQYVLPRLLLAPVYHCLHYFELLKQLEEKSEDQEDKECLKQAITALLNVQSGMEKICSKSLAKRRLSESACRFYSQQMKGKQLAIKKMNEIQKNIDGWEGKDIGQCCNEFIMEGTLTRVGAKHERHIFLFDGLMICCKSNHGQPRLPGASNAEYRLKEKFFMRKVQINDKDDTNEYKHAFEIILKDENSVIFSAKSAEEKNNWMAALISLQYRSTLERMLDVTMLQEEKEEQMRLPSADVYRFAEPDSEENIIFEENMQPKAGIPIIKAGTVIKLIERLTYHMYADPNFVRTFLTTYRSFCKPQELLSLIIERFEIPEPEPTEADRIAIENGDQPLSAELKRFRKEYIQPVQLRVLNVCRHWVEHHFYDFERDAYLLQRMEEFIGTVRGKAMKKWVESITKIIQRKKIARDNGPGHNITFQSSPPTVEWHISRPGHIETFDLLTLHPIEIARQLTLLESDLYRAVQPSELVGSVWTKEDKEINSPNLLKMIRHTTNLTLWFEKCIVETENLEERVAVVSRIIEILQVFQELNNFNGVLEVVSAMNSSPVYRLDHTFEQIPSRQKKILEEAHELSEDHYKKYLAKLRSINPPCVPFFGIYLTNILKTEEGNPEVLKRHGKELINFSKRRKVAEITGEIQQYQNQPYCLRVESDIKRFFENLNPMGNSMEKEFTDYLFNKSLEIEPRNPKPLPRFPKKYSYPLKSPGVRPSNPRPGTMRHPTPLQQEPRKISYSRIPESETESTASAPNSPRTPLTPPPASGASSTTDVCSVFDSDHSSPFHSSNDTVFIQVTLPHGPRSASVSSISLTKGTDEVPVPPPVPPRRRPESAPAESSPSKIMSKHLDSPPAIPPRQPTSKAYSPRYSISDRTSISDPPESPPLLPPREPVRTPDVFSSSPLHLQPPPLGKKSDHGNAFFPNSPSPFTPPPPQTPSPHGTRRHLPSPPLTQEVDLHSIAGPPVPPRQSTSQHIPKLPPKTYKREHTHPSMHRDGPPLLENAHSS

Take `COc1ncc(-c2ccc3ncnc(N4CCN(C(=O)/C=C/C(C)=O)C[C@@H]4C)c3c2)cc1NS(=O)(=O)c1ccc(F)cc1F` [US20250145589, Example 8]: the figures for the pIC50 in experiment [1], in experiment [2] and in experiment [3] were 7.75, 9.47 and 6.65, respectively.
`C=CS(=O)(=O)N1CCN(c2ncnc3ccc(-c4cnc(OC)c(NS(=O)(=O)c5ccc(F)cc5F)c4)cc23)CC1` [US20250145589, Example 207] gave a pIC50 in experiment [2] of 8.49.
The compound `C=C(F)C(=O)N1CCN(c2ncnc3ccc(-c4cnc(OC)c(N(C)S(=O)(=O)c5ccc(F)cc5F)c4)cc23)CC1` [US20250145589, Example 79] gave a pIC50 in experiment [1] of 6.04.
Turning to `COc1ncc(-c2ccc3ncnc(N4CCN(C(=O)/C=C/C(C)=O)CC4)c3n2)cc1NS(=O)(=O)c1cnccc1C` [US20250145589, Example 223], the results for the pIC50 in experiment [2] and in experiment [3] were 8.85 and 6.68, respectively.
Consider `COc1ncc(-c2ccc3ncnc(N4CCN(C(=O)/C=C/C(C)=O)CC4)c3c2)cc1SS(=O)(=O)c1ccc(F)cc1F` [US20250145589, Example 246], for which the pIC50 is 7.86 in experiment [1], 8.65 in experiment [2] and 6.80 in experiment [3].
Taken in the same sequence, the figures for `COc1ncc(-c2ccc3ncnc(N4CCC5(CN(C(=O)/C=C/C(C)=O)C5)C4)c3c2)cc1NS(=O)(=O)c1ccc(F)cc1F` [US20250145589, Example 13] were 7.07, 7.95 and 7.01.
